# Patent publication US20160082105A1, “Antibody Buffering of a Ligand in Vivo” (ARROWSMITH TECHNOLOGIES CORPORATION, priority 2004, published 2016)
# Like-named read-outs stand apart in the source and are kept apart here.
# Description: Male Sprague-Dawley rats (300 g) were obtained from Zivic Laboratories, Inc. (Zelienople, Pa.). Each rat underwent surgery to place a cannula in the right lateral ventricle for injections and a second cannula in the cisterna magna for cerebral spinal fluid (CSF) sampling. Briefly, the rat was anesthetized with 2.5% isoflurane and fixed in a stereotaxic device. Normal body temperature was maintained through a heating pad. A linear midline incision exposed the frontal, parietal, and occipital bones. The lateral ventricle was located using the coordinates (1.8 mm posterior, 3.8 mm lateral, and 4 mm ventral from bregma) obtained from a stereotaxic atlas of the rat (Paxinos et al. The Rat Brain in Stereotaxic Coordinates (Academic Press 1998)). A hole was drilled through the skull, a cannula was inserted, and it was fixed to the skull using VetBond (3M, Minneapolis, Minn.) and dental cement. […] The cannula was inserted to a depth of 2 mm below the bottom of the skull and fixed with VetBond and dental cement. Screw-capped cannula dummy wires were inserted into the cannula guides to maintain a closed system. Rats were allowed to recover for at least 24 hours before ventricular injection.
# For experiments for which injections and withdrawals of CSF were done via the same site in the cisterna magna (CM), male Sprague-Dawley rats (250 g) were obtained from Charles River Laboratories (Wilmington, Mass.). […] Rats were allowed to rest no more than three days after arrival prior to experimentation to reduce the risk of cannula blockage.
# Samples were prepared for injection: 104 pmol anti-Ox antibody and 52 pmol Ox; 104 pmol of D1.3 control antibody and 52 pmol Ox; and 52 pmol Ox alone. Each sample was diluted to 10 μl with sterile PBS. The samples were warmed to 37° C., and then infused over 1 minute through the intraventricular or cisternal cannula in Sprague-Dawley rats. The end of the infusion was designated as time zero (0). At various timepoints, 10 μl of CSF was withdrawn. For one set of rats, the 10 μl CSF was counted directly by placing it into 5 ml of Scintiverse II and counting in a Beckman LS6500 Scintillation Counter. For another set of rats, the 10 μl CSF was diluted into 100 μl ice cold PBS and used in bound vs. free Ox experiments described below.
# Samples of NQ11/7.12 and Ox were prepared and infused into the cisternal cannula of Sprague-Dawley rats from Charles River Laboratories as described above for the antibody buffering protocol. Ten μl of CSF was taken from the cisterna magna at time 1, 10, 20, 30, 60, 90 and 120 minutes. The 10 μl CSF samples were either counted directly or diluted into 100 μl ice cold PBS and loaded onto a 187.1 column to separate bound and free Ox. At 24 hours and at 48 hours following the first administration, 52 pmol Ox in 10 μl total volume (diluted with sterile PBS) was infused over 1 minute through the cisterna magna cannula. Timepoints were again taken and analyzed as above.
# To determine the pharmacokinetic behavior of Ox in the CSF, tritiated Ox was infused into a rat through its intraventricular cannula, and elimination of Ox was followed through CSF sampling from the cisterna magna (CM) cannula. Sampling was done from the cisterna magna because it is the largest CSF compartment. Its location between the cerebellum and the upper brain stem and its large size make it relatively easy to access CSF for sampling and scintillation counting (van den Berg et al., J. Neurosci. Methods 116:99-107 (2002)).
smiles,measurement,setting,value
"O=C(O)CCCNC=C1N=C(c2ccccc2)OC1=O [Ox, 2-phenyl-oxazol-5-one-γ-amino butyrate]",Ox elimination half-life from the cisterna magna,"Ox alone (no NQ11/7.12), intraventricular infusion, cisternal CSF sampling",1.2 min
same,"total Ox pharmacokinetic lifetime in CSF, long term buffering",Ox alone re-administered at 24 hours and 48 hours after a single NQ11/7.12 + Ox cisternal infusion,kinetic profile between the profile observed when Ox was initially administered with NQ11/7.12 and the profile of Ox when administered with D1.3
same,Ox elimination half-life from CSF,"Ox co-administered with control antibody D1.3, cisternal infusion",1.0 min
same,Ox elimination half-life from CSF,"Ox co-administered with twice the molar amount of NQ11/7.12, cisternal infusion",10 min
same,time of peak Ox concentration in the cisterna magna,"Ox with twice the molar amount of NQ11/7.12, intraventricular infusion",around 5 minutes
same,peak Ox concentration in the cisterna magna,"Ox without antibody buffer, intraventricular infusion",never attained a peak concentration
same,"increase in Ox half-life in CSF, NQ11/7.12 vs D1.3",cisternal infusion,ten-fold
